Results from PubChem BioAssay AID2060892 (Molecular Pharmacology Branch, DTP, NCI, 2025).

Tested on: HOP-62 complex spheroids with HUVEC/MSC, viability
Experiment: Anticancer human tumor HOP-62 cell line growth inhibition [RAS];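 note: spheroids exposed to agents for seven days before readout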
Details: for IC50: curve of first compound; for viability, T/C: stronger effect = lower value; active = viability on the fitted dose curve at most 10% of control; inactive = the rest
Description: RAS pathway inhibitors in Combinations in Complex Spheroids
A high-throughput screen of multi-cell type tumor spheroids was designed to identify active combinations of RAS pathway inhibitors and targeted small molecules. Complex spheroids include a stromal component modeled by human endothelial cells (HUVEC) and fibroblasts modeled by human mesenchymal stem cells (MSCs). The concentration ranges selected for each drug and investigational agent were based upon clinically achievable concentrations if the clinical Cmax of the agent was known.
Compounds. The drugs and investigational agents: abemaciclib (NSC768073), cobimetinib (NSC768068), divarasib (GDC6063, NSC841802), docetaxel (NSC628503), GDC-1971 (RLY-1971, NSC841576), gemcitabine (NSC613327), inavolisib (NSC800729), ipatasertib (NSC767898), KB-0742 (NSC834161), MRTX-1133 (NSC836407), osimertinib (NSC779217), RMC-4630 (NSC839698), RMC-6236 (NSC851965), RMC-6291 (NSC852671), Ro-3306 (NSC812927), sapanisertib (NSC764658), SN-38 (NSC673596), staurosporine (NSC755774), SY5609 (NSC837396), and tovorafenib (DAY101, NSC766906), were obtained from the National Cancer Institute (NCI) Developmental Therapeutics Program Chemical Repository. The FDA-approved anticancer drug set is available from the NCI Developmental Therapeutics Program. […] The stock solutions were prepared in dimethyl sulfoxide (DMSO, Sigma-Aldrich, St. Louis, MO, cat. D2650) at 800-fold the tested concentration and stored at -70 degrees C prior to their use. All drugs and investigational agents were tested over a range starting from a high concentration at or near the clinical Cmax and decreasing in half-log increments. If the clinical Cmax for an agent had not been determined, the highest concentration tested was 10 microM.
Cell Culture. All cells were maintained in an incubator at 37 degrees C and 5% CO2 with 95% humidity. The PDC lines were cultured according to standard operating procedures established by the NCI PDMR. All PDCs were thawed and cultured in Matrigel-coated flasks prepared with a working solution of 1X Ham's F-12 nutrient mix, without supplementation (Invitrogen, Waltham, MA, cat. 11765054), 100 U/mL penicillin-streptomycin (Invitrogen, cat. 15140122), and 2.5% Matrigel (Corning Inc., Corning, NY, cat. 354248) for the first three passages. The 362531-283-R-J2-PDC and 782815-120-R-J1-PDC lines were cultured in 6C/Colon 1B media, which includes advanced DMEM/F-12 (Thermo Fisher Scientific, cat. 12634028), 10 mM HEPES (Thermo Fisher Scientific, cat. 15630080), 1X GlutaMAX supplement (Thermo Fisher Scientific, cat. 35050061), 0.1 mg/mL primocin (InvivoGen, San Diego, CA, cat. ant-pm-2), 10% defined fetal bovine serum, heat inactivated (HyClone Laboratories Inc., Logan, UT, cat. SH30070.03HI), 50% L-WRN conditioned media (ATCC, cat. CRL-3276), 1.25 mM N-Acetyl-L-cysteine (Sigma-Aldrich, cat. A9165), 10 mM nicotinamide (Sigma-Aldrich, cat. N0636), 1X B-27 supplement (Thermo Fisher Scientific, cat. 17504044), 1X N-2 supplement (Thermo Fisher Scientific, cat. 17502048), 50 ng/mL human EGF (Thermo Fisher Scientific, cat. PHG0311), and 10 microM Y-27632 dihydrochloride (Tocris Bioscience, cat. 1254). The K12877-001-R-J1-PDC line was cultured in 6I media, which includes all 6C/Colon 1B media plus 10 ng/mL human FGF-10 (PeproTech, cat. 100-26), 1 ng/mL human FGF-2 (PeproTech, cat. 100-18B), 1 µM prostaglandin E2 (Tocris Bioscience, cat. 2296), […] hydrocortisone (Sigma-Aldrich, cat. H4001), and […] bovine insulin (Sigma-Aldrich, cat. I6634). The K86415-001-R-J1-PDC line was cultured in 6D media, which includes all 6C/Colon 1B media components minus the L-WRN conditioned media. The 485176-168-R4-J1-PDC was cultured in PANC media, which includes all 6C/Colon 1B media plus 100 ng/mL human FGF-10 (PeproTech, cat. 100-26), 500 nM SB-431542 (Selleckchem, cat. S1067), and 10 nM gastrin (Tocris Bioscience, cat. 3006). […]

[1] = second compound 0.0316 µM, first compound 0.0316 µM
[2] = second compound 0.0316 µM, first compound 0.1 µM
[3] = second compound 0.0316 µM, first compound 0.316 µM
[4] = second compound 0.0316 µM, first compound 1 µM
[5] = second compound 0.0316 µM, first compound 3.16 µM
[6] = second compound 0.0316 µM, first compound 10 µM
[7] = second compound 0.1 µM, first compound 0.0316 µM
[8] = second compound 0.1 µM, first compound 0.1 µM
[9] = second compound 0.1 µM, first compound 0.316 µM
[10] = second compound 0.1 µM, first compound 1 µM
[11] = second compound 0.1 µM, first compound 3.16 µM
[12] = second compound 0.1 µM, first compound 10 µM
[13] = second compound 0.316 µM, first compound 0.0316 µM
[14] = second compound 0.316 µM, first compound 0.1 µM
[15] = second compound 0.316 µM, first compound 0.316 µM
[16] = second compound 0.316 µM, first compound 1 µM
[17] = second compound 0.316 µM, first compound 3.16 µM
[18] = second compound 0.316 µM, first compound 10 µM
[19] = second compound 1 µM, first compound 0.0316 µM
[20] = second compound 1 µM, first compound 0.1 µM
[21] = second compound 1 µM, first compound 0.316 µM
[22] = second compound 1 µM, first compound 1 µM
[23] = second compound 1 µM, first compound 3.16 µM
[24] = second compound 1 µM, first compound 10 µM
[25] = second compound 3.16 µM, first compound 0.0316 µM
[26] = second compound 3.16 µM, first compound 0.1 µM
[27] = second compound 3.16 µM, first compound 0.316 µM
[28] = second compound 3.16 µM, first compound 1 µM
[29] = second compound 3.16 µM, first compound 3.16 µM
[30] = second compound 3.16 µM, first compound 10 µM
[31] = second compound 10 µM, first compound 0.0316 µM
[32] = second compound 10 µM, first compound 0.1 µM
[33] = second compound 10 µM, first compound 0.316 µM
[34] = second compound 10 µM, first compound 1 µM
[35] = second compound 10 µM, first compound 3.16 µM
[36] = second compound 10 µM, first compound 10 µM

Cc1nc(N2CCC3(CC2)COC(C)C3N)c(CO)nc1Sc1ccnc(N)c1Cl (stereo unspecified) + C#Cc1c(F)ccc2cc(O)cc(-c3ncc4c(N5CC6CCC(C5)N6)nc(OCC56CCCN5CC(F)C6)nc4c3F)c12
113 nM: IC50 (second compound 3.16 µM)
669 nM: IC50 (second compound 1 µM)
3110 nM: IC50 (second compound 0.316 µM)
> 10000 nM: IC50 (second compound 0.0316 µM) | IC50 (second compound 0.1 µM)
< 31.6 nM: IC50 (second compound 10 µM)
active: viability, T/C [35] 8.04% | viability, T/C [36] 8.15%
inactive: viability, T/C [1] 105% | viability, T/C [2] 112% | viability, T/C [3] 96.6% | viability, T/C [4] 82.5% | viability, T/C [5] 70.5% | viability, T/C [6] 64.8% | viability, T/C [7] 117% | viability, T/C [8] 97.7% | viability, T/C [9] 84.9% | viability, T/C [10] 79.1% | viability, T/C [11] 67.1% | viability, T/C [12] 48.5% | viability, T/C [13] 108% | viability, T/C [14] 97.6% | viability, T/C [15] 82.4% | viability, T/C [16] 64.8% | viability, T/C [17] 51.1% | viability, T/C [18] 34.5% | viability, T/C [19] 101% | viability, T/C [20] 79.5% | viability, T/C [21] 61.3% | viability, T/C [22] 46.6% | viability, T/C [23] 28.1% | viability, T/C [24] 25.6% | viability, T/C [25] 64.3% | viability, T/C [26] 51.3% | viability, T/C [27] 38.1% | viability, T/C [28] 27.1% | viability, T/C [29] 16.8% | viability, T/C [30] 11.2% | viability, T/C [31] 36.7% | viability, T/C [32] 32.4% | viability, T/C [33] 19.5% | viability, T/C [34] 10.1%

NC1c2ccccc2OC12CCN(c1cnc3c(N4CCCc5ncccc54)n[nH]c3n1)CC2 (stereo unspecified) + C#Cc1c(F)ccc2cc(O)cc(-c3ncc4c(N5CC6CCC(C5)N6)nc(OCC56CCCN5CC(F)C6)nc4c3F)c12
1820 nM: IC50 (second compound 0.0316 µM)
772 nM: IC50 (second compound 0.1 µM)
330 nM: IC50 (second compound 0.316 µM)
71.1 nM: IC50 (second compound 1 µM)
inactive: viability, T/C [1] 103% | viability, T/C [2] 80.8% | viability, T/C [3] 73.7% | viability, T/C [4] 57.2% | viability, T/C [5] 45.7% | viability, T/C [6] 26.6% | viability, T/C [7] 92.4% | viability, T/C [8] 91.4% | viability, T/C [9] 61.5% | viability, T/C [10] 49.9% | viability, T/C [11] 28.6% | viability, T/C [12] 27.1% | viability, T/C [13] 90.9% | viability, T/C [14] 76.7% | viability, T/C [15] 49.8% | viability, T/C [16] 29.9% | viability, T/C [17] 22.3% | viability, T/C [18] 15.1% | viability, T/C [19] 60.2% | viability, T/C [20] 45.7% | viability, T/C [21] 29.7% | viability, T/C [22] 19.3% | viability, T/C [23] 13.8% | viability, T/C [24] 12.7% | viability, T/C [25] 40.9% | viability, T/C [26] 20.9% | viability, T/C [27] 15.6% | viability, T/C [28] 11.8% | viability, T/C [29] 10.8% | viability, T/C [30] 12.2% | viability, T/C [31] 16.2% | viability, T/C [32] 11% | viability, T/C [33] 7.6% | viability, T/C [34] 8.99% | viability, T/C [35] 8.52% | viability, T/C [36] 17.5%
< 31.6 nM: IC50 (second compound 3.16 µM) | IC50 (second compound 10 µM)

Nc1ccn(C2OC(CO)C(O)C2(F)F)c(=O)n1 (stereo unspecified) + C#Cc1c(F)ccc2cc(O)cc(-c3ncc4c(N5CC6CCC(C5)N6)nc(OCC56CCCN5CC(F)C6)nc4c3F)c12
4.58 nM: IC50 (second compound 3.16 µM)
active: viability, T/C [1] 5.94% | viability, T/C [2] 5.61% | viability, T/C [3] 4.99% | viability, T/C [4] 6.52% | viability, T/C [7] 8.15% | viability, T/C [8] 4.9% | viability, T/C [9] 5.5% | viability, T/C [10] 6.42% | viability, T/C [13] 4.88% | viability, T/C [14] 4.68% | viability, T/C [15] 4.42% | viability, T/C [16] 4.04% | viability, T/C (second compound 1 µM, first compound 0.01 µM) 9.09% | viability, T/C [19] 4.77% | viability, T/C [20] 4.48% | viability, T/C [21] 3.43% | viability, T/C [22] 3.47% | viability, T/C [25] 5.06% | viability, T/C [26] 4.31% | viability, T/C [27] 5.01% | viability, T/C [28] 4.23% | viability, T/C [31] 8.09% | viability, T/C [32] 6.92% | viability, T/C [33] 8.08% | viability, T/C [34] 6.83%
6.38 nM: IC50 (second compound 0.0316 µM)
< 3.16 nM: IC50 (second compound 10 µM)
5.77 nM: IC50 (second compound 0.1 µM)
5.94 nM: IC50 (second compound 0.316 µM)
inactive: viability, T/C (second compound 0.0316 µM, first compound 0.00316 µM) 107% | viability, T/C (second compound 0.0316 µM, first compound 0.01 µM) 13.4% | viability, T/C (second compound 0.1 µM, first compound 0.00316 µM) 92.4% | viability, T/C (second compound 0.1 µM, first compound 0.01 µM) 11.2% | viability, T/C (second compound 0.316 µM, first compound 0.00316 µM) 97.4% | viability, T/C (second compound 0.316 µM, first compound 0.01 µM) 10.9% | viability, T/C (second compound 1 µM, first compound 0.00316 µM) 83.7% | viability, T/C (second compound 3.16 µM, first compound 0.00316 µM) 67.8% | viability, T/C (second compound 3.16 µM, first compound 0.01 µM) 12.5% | viability, T/C (second compound 10 µM, first compound 0.00316 µM) 39.5% | viability, T/C (second compound 10 µM, first compound 0.01 µM) 12.1%
5.32 nM: IC50 (second compound 1 µM)
